{"source": "patent US20180136216A1", "about": "“Biomarkers for a Combination Therapy Comprising Lenvatinib and Everolimus” (EISAI R&D MANAGEMENT CO., LTD., priority 2015, published 2018)", "system": "metastatic renal cell carcinoma (RCC)", "assay": "Phase 2 study (NCT01136733) of lenvatinib, everolimus or the combination; baseline serum Ang2 versus OS and PFS", "assay_type": "in vivo, human", "description": "Purpose: A Phase 2 study for lenvatinib was performed in patients with metastatic renal cell carcinoma (RCC) following a VEGF-targeted therapy. The importance of angiogenesis in RCC highlights the need to understand clinical mechanisms of escape from anti-angiogenic therapy, such as everolimus. This clinical biomarker analysis was conducted to identify predictive markers of clinical benefit in RCC patients upon the combination therapy with lenvatinib and everolimus compared to everolimus monotherapy.\nThe purpose of this analysis was to measure Ang2 level in blood samples, such as serum, obtained from patients in clinical trials at both pre- and post-treatment with lenvatinib, everolimus or the combination thereof, and to identify blood biomarkers which can be used to predict whether patients will need the combination therapy.\nMaterials and Methods: Patients having metastatic renal cell carcinoma after a prior VEGF-targeted therapy received lenvatinib mesylate (“lenvatinib”), everolimus, or the combination thereof until disease progression or development of unmanageable toxicities. Patients received lenvatinib at a dose of 24 mg (as lenvatinib free base; the same shall apply hereinafter) oral once daily, everolimus at a dose of 10 mg oral once daily, or lenvatinib at 18 mg and everolimus at 5 mg oral once daily. 153 patients were treated and evaluated for efficacy and molecular correlative analysis. This study was a part of a Phase 2 multicenter study of lenvatinib (NCT01136733). Pre- and post-treatment serum samples were collected for biomarker analysis. Serum samples were collected on Cycle 1 Day 1 (pre-treatment), Cycle 2 Day 15, and Day 1 of every cycle from Cycle 2, and at off-treatment. Each Cycle consisted of 4 weeks (28 days). Ang2 detection enzyme immunoassay kit (EIDIA Co., Ltd.) was used for the quantification of serum Ang2 level. The association between the concentration at Cycle 1 Day 1 (“baseline level”) of Ang2 and clinical outcomes, such as progression free survival (PFS) and overall survival (OS), was assessed. PFS is defined as the time from the date of randomization to the date of first documentation of disease progression or death, whichever occurs first. PFS was based on investigator review data using RECIST 1.1. OS is defined as the time from randomization until death from any cause. “Randomization” means randomization of a patient into a test group or a control group when therapy plan for a patient is determined.", "key": {"[1]": {"details": "low baseline Ang2 (≤3760 pg/ml)"}}, "data": [{"smiles": "CO[C@H]1C[C@@H]2CC[C@@H](C)[C@@](O)(O2)C(=O)C(=O)N2CCCC[C@H]2C(=O)O[C@H]([C@H](C)C[C@@H]2CC[C@@H](OCCO)[C@H](OC)C2)CC(=O)[C@H](C)/C=C(\\C)[C@@H](O)[C@@H](OC)C(=O)[C@H](C)C[C@H](C)/C=C/C=C/C=C/1C", "note": "[everolimus, (1R,9S,12S,15R,16E,18R,19R,21R,23S,24E,26E,28E,30S,32S,35R)-1,18-dihydroxy-12-{(1R)-2-[(1S,3R,4R)-4-(2-hydroxyethoxy)-3-methoxycyclohexyl]-1-methylethyl}-19,30-dimethoxy-15,17,21,23,29,35-hexamethyl-11,36-dioxa-4-aza-tricyclo[30.3.1.0^4,9]hexatriaconta-16,24,26,28-tetraene-2,3,10,14,20-pentaone]", "values": [{"measurement": "median PFS", "setting": "high baseline Ang2 (>3760 pg/ml)", "value": 5.5, "unit": "months"}, {"measurement": "median OS", "setting": "high baseline Ang2 (>3760 pg/ml, 33rd percentile cut-off)", "value": 12.2, "unit": "months"}, {"measurement": "median OS", "setting": "higher baseline Ang2, 25th percentile cut-off (3565 pg/ml)", "value": 12.2, "unit": "months"}, {"measurement": "median OS", "setting": "higher baseline Ang2, 70th percentile cut-off (5650 pg/ml)", "value": 12.2, "unit": "months"}, {"measurement": "median OS", "setting": "[1]", "value": "not reached"}, {"measurement": "median PFS", "setting": "[1]", "value": 5.6, "unit": "months"}]}]}
